Experimental data reported in PMC5350466 (mBio, 2017).
≈ marks a conversion by molar mass, not a printed value.

Legend:
BcnA [1] = target: T1, BcnA (Burkholderia cenocepacia, UniProt B4EE32); test: In vitro binding assay: Nile red displacement from BcnA; details: against 1.5 µM Nile red binding to 1.5 µM BcnA in PBS; read-out: binding inhibition constant (Ki)
T1 sequence (B4EE32 27-186): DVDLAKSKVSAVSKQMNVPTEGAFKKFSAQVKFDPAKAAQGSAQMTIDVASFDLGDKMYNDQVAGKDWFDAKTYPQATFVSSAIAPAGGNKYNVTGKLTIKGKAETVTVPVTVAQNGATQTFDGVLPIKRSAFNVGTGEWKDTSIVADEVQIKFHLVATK
Experimental: In vitro binding assays were performed as previously described ([23]), with a few modifications. Purified BCNs were prepared in phosphate-buffered saline (PBS, pH 7.4). Phospholipids and Nile red were prepared in DMSO. […] All spectra were corrected for background fluorescence determined from probe-into-buffer titrations. Fluorescence was measured with a Cary Eclipse fluorescence spectrophotometer (Varian) set at an excitation wavelength (λex) specific for each probe, as follows: Nile red, 550 nm; BODIPY phospholipids, 500 nm for fatty acyl BODIPY-labeled phosphocholine and 505 nm for head group BODIPY-labeled phosphoethanolamine. The emission spectrum for each probe was collected across the following wavelengths (λem): Nile red, 590 to 750 nm; BODIPY phospholipids, 510 to 665 nm. The background-corrected binding fluorescence with each probe was fitted to a one-site binding model as previously described for human AGP ([23]). The equilibrium binding affinity constant for the probe-BCN complex (Kd), the probe concentration needed to achieve half-maximum binding at equilibrium, was determined by nonlinear least-squares regression analysis of the binding isotherms with GraphPad Prism v 5.0 software (GraphPad Software, Inc.).
For probe displacement experiments, antibiotic solutions and fat-soluble vitamins (prepared in DMSO) diluted in PBS, pH 7.4, were titrated against a BCN-probe complex at a saturating concentration necessary to obtain the maximum fluorescence when bound. Probe displacement was measured as the corresponding decrease in fluorescence upon the progressive increase in the antibiotic concentration. The binding inhibition constants (Kis) of the test compounds were determined by nonlinear regression analysis with competition-binding equations for one-site binding calculated by GraphPad Prism v 5.0 software. The lower the Ki values, the higher the affinity of the molecule for BcnA. All fluorometric assays were conducted in duplicate three independent times.

B. cenocepacia K56-2 = test: MIC by broth microdilution, parental strain; format: cell-based, Burkholderia cenocepacia; details: broth microdilution in cation-adjusted MHB at 18 to 24 h; for MIC: Burkholderia cenocepacia, K562
K56-2 pSCRhaB2 = test: MIC by E test; format: cell-based; details: Burkholderia cenocepacia, 24 h, read-out: MIC by Etest, K56-2 pSCRhaB2
ΔbcnA pSCRhaB2 = test: MIC by E test; format: cell-based, Burkholderia cenocepacia; details: 24 h
ΔbcnA pbcnA (Sa) = test: MIC by E test; format: cell-based, Burkholderia cenocepacia; details: 24 h
[2] = test system: B. cenocepacia ΔbcnA mutant; test: MIC by broth microdilution, ΔbcnA mutant; format: cell-based, Burkholderia cenocepacia
[3] = test system: B. cenocepacia ΔbcnB mutant; test: MIC by broth microdilution, ΔbcnB mutant; format: cell-based, Burkholderia cenocepacia; details: broth microdilution in cation-adjusted MHB at 18 to 24 h
bcnA::luxCDABE = test: Luciferase expression assay, bcnA::luxCDABE; format: cell-based, Burkholderia cenocepacia; details: antibiotic at concentrations near the MIC (sublethal), 3 h
BcnA [4] = target: T1, BcnA; test: Antibiotic bioassay of sequestration by BcnA; format: binding; details: 1.5 µM BcnA, 30 min at 37°C, 10-kDa cutoff filtration
Experimental: Antibiotic test solutions with or without 1.5 µM BcnA were incubated for 30 min at 37°C with rotation. The solutions were filtered through filter units with a 10-kDa cutoff by centrifugation at 7,500 × g, at 4°C for 10 min. The antibiotic concentrations in the filtrates were determined by spotting 5 µl onto sterile filter discs placed on agar plates swabbed with the test bacteria. Petri dishes (15-cm diameter) containing 40 ml of LB agar were swabbed with bacterial suspensions with an OD600 of 0.04. The plates were incubated at 37°C for 24 h. Each plate included four discs containing standard concentrations of the antibiotic alongside the discs impregnated with test and control antibiotic solutions. E. coli DH5α was used for bioassays of PmB, norfloxacin, ceftazidime, and gentamicin, and S. aureus USA300 was used for bioassays of rifampin. The theoretical disc contents of the test antibiotic solutions were 10, 5, 2, 30, and 10 µg for PmB, rifampin, norfloxacin, ceftazidime, and gentamicin, respectively. Standard antibiotic discs contained a 2-fold higher concentration than, the same concentration as, or a 2- or 4-fold lower concentration than the test antibiotic discs. After incubation, the clear zones of inhibition were measured and the antibiotic concentrations were determined from standard curves constructed from the standard antibiotic discs.

bcnB::luxCDABE = test: Luciferase expression assay, bcnB::luxCDABE; format: cell-based, Burkholderia cenocepacia; details: antibiotic at concentrations near the MIC (sublethal), 3 h

Compound	Ki (BcnA [1]) [µM]	MIC (B. cenocepacia K56-2) [µg/mL]	expression of bcnA::luxCDABE upon exposure to antibiotic (bcnA::luxCDABE)	antibiotic sequestration by BcnA (BcnA [4])	other results
menaquinone [Vit K2]	0.569	–	–	–	–
CN(C)c1ccc(O)c2c1C[C@H]1C[C@H]3[C@H](N(C)C)C(O)=C(C(N)=O)C(=O)[C@@]3(O)C(O)=C1C2=O [Minocycline, minocycline]	–	2 (≈ 4.37 µM)	–	–	–
COc1cc(Cc2cnc(N)nc2N)cc(OC)c1OC [Trimethoprim, trimethoprim]	–	8 (≈ 27.6 µM)	–	–	–
Cc1c(C)c2c(c(C)c1O)CC[C@@](C)(CCC[C@H](C)CCC[C@H](C)CCCC(C)C)O2 [Vit E, α-tocopherol]	0.417	–	–	–	–
O=C(O)c1cn(C2CC2)c2cc(N3CCNCC3)c(F)cc2c1=O [Cipro, ciprofloxacin]	–	–	–	–	MIC (K56-2 pSCRhaB2): 4 µg/mL (≈ 12.1 µM); MIC by Etest, ΔbcnA pSCRhaB2 (ΔbcnA pSCRhaB2): 2 μg/ml; MIC by Etest, ΔbcnA pbcnA (Sa) (ΔbcnA pbcnA (Sa)): 4 µg/mL (≈ 12.1 µM)
polymyxin B [PmB]	–	–	upregulated	sequestered	MIC K56-2 (B. cenocepacia K56-2): ≥ 4096 µg/mL; MIC ΔbcnA ([2]; broth microdilution in cation-adjusted MHB at 18 to 24 h): 2048 µg/mL; MIC reduction in the ΔbcnA mutant ([2]; ΔbcnA mutant relative to parental strain): 4 fold; MIC ΔbcnB [3]: ≥ 4096 µg/mL
CC(C)(O/N=C(\C(=O)N[C@@H]1C(=O)N2C(C(=O)[O-])=C(C[n+]3ccccc3)CS[C@H]12)c1csc(N)n1)C(=O)O [Ceftazidime, ceftazidime]	16900	32 (≈ 58.5 µM)	upregulated	sequestered	MIC (K56-2 pSCRhaB2): 8 µg/mL (≈ 14.6 µM); MIC by Etest, ΔbcnA pSCRhaB2 (ΔbcnA pSCRhaB2): 2 μg/ml; MIC by Etest, ΔbcnA pbcnA (Sa) (ΔbcnA pbcnA (Sa)): 8 µg/mL (≈ 14.6 µM); expression of bcnB::luxCDABE upon exposure to antibiotic (bcnB::luxCDABE): increased
CNC(C)C1CCC(N)C(OC2C(N)CC(N)C(OC3OCC(C)(O)C(NC)C3O)C2O)O1 (centres unmarked) [Gentamicin, gentamicin]	–	2050 (≈ 4290 µM)	remained unchanged	not	–
CCn1cc(C(=O)O)c(=O)c2cc(F)c(N3CCNCC3)cc21 [Norfloxacin, norfloxacin]	400	128 (≈ 401 µM)	upregulated	sequestered	expression of bcnB::luxCDABE upon exposure to antibiotic (bcnB::luxCDABE): increased
CC[C@H]1OC(=O)[C@H](C)[C@@H](O[C@H]2C[C@@](C)(OC)[C@@H](O)[C@H](C)O2)[C@H](C)[C@@H](O[C@@H]2O[C@H](C)C[C@H](N(C)C)[C@H]2O)[C@](C)(O)C[C@@H](C)CN(C)[C@H](C)[C@@H](O)[C@]1(C)O [Azithromycin, azithromycin]	–	64 (≈ 85.4 µM)	–	–	–
CO[C@H]1/C=C/O[C@@]2(C)Oc3c(C)c(O)c4c(O)c(c(/C=N/N5CCN(C)CC5)c(O)c4c3C2=O)NC(=O)/C(C)=C\C=C\[C@H](C)[C@H](O)[C@@H](C)[C@@H](O)[C@@H](C)[C@H](OC(C)=O)[C@@H]1C [Rifampicin, rifampin]	16.5	256 (≈ 311 µM)	upregulated	sequestered	MIC (K56-2 pSCRhaB2): ≥ 64 µg/mL; MIC by Etest, ΔbcnA pSCRhaB2 (ΔbcnA pSCRhaB2): 16 μg/ml; MIC by Etest, ΔbcnA pbcnA (Sa) (ΔbcnA pbcnA (Sa)): ≥ 64 µg/mL
C[C@@H](O)[C@H]1C(=O)N2C(C(=O)O)=C(S[C@@H]3CN[C@H](C(=O)N(C)C)C3)[C@H](C)[C@H]12 [Meropenem, meropenem]	–	1 (≈ 2.61 µM)	–	–	–
